Measured values: US9408906B2, “Peptide particle formulation” (FLOW PHARMA, INC., priority 2010, dated 2016)

Test system: Mature dendrocytes mixed with T-Lymphocytes
Assay: Antigen presentation and T cell stimulation: production of human γ-IFN measured by ELISA
Assay type: cell-based
Settings: human γ-IFN production after 2 hours incubation; HLA-A02 CMV-exposed donor PBMC-derived dendrocytes + T-lymphocytes; free peptide at 10^−9 M or 15 micron PLGA microspheres with approximately 2% NLVPMVATV
From the text: Preparation of Dendritic Cells from peripheral blood mononuclear cells (PBMC). Frozen PBMC cells were obtained from Cellular Technology Limited, from volunteer donors known to have been exposed to CMV, and to be HLA-A02. The volunteer's antigen presenting cells were known to be capable of presenting HCMV pp 65 (NLVPMVATV) CMV epitope to T lymphocytes. Human PBMC (Peripheral Blood Mononuclear Cells) isolated from leukopacks and frozen in serum-free CTL-Cryo™ medium. These leukopacks were ethically collected from healthy donors tested for: HBsAg, HBcAb, HCV, HTLV I/II, and STS by serology; as well as HIV I, HCV, and WNV by NAT.
Cells were thawed and plated at a concentration of 1×10^5 monocytes/well of a 24-well plate in medium supplemented with GM-CSF at a final concentration of 50 ng/ml and IL-4 at a final concentration of 100 ng/ml. Cells were maintained in culture at 37° C./5% CO2 for 6 days; and used with 8 days after that point. Optical microscopy confirmed maturation of monocytes to dendrocytes capable of phagocytosis of 15 micron PLGA microspheres.
Presentation of antigen and stimulation of T cells was assessed by production of human γ-IFN, measured by ELISA. […] Production of γ-IFN was measured after 2 hours.

Question: For NLVPMVATV [free peptide], which “ELISA Optical Density” value is on record?
Answer: The value was 0.612.
